Assay results taken from patent publication US11034718B2, “C-3 novel triterpenone with C-17 reverse amide derivatives as HIV inhibitors” (HETERO LABS LIMITED, priority 2015, dated 2021).
Read-outs that look alike come from different tables or passages of the source.

Tests used:
Assay type in all cases: cell-based
HIV-1 pNL4-3 V7A = test: Antiviral activity against pNL4-3/V7A strain in MT4 cells (p24 estimation); details: Human immunodeficiency virus 1, MT4, 96 h, read-out: pNL4-3 V7A IC50
Outline: (§1)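 MT4 cells infected with HIV-1 pNL4-3 WT or V7A (defined TCID50, 1.5 h, 37° C), plated at 3×10^4 cells/well with test compound, final DMSO ≤1%. After 4 days' culture, p24 in supernatant aliquots measured by kit.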

HIV-1 pNL4-3 WT = test: Antiviral activity against pNL4-3/WT strain in MT4 cells (p24 estimation); details: Human immunodeficiency virus 1, MT4, 96 h, read-out: pNL4-3 WT IC50
Outline: as §1

HIV-1 strain 92HT599 = test: Antiviral activity against HIV-1 strain 92HT599 in MT2 cells (p24 estimation); details: HIV-1 92HT599, ~96 hours
Outline: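 Percent inhibition versus vehicle controls came from p24 quantified in supernatant aliquots. These were taken after ~96 h incubation of compound (DMSO ≤1%) with MT2 cells infected at 10 TCID50/30,000 cells.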

[1] = Human immunodeficiency virus 1, 0% serum binding assay, read-out: IC50 0% serum
[2] = Human immunodeficiency virus 1, 40% serum binding assay, read-out: IC50 40% serum

SMILES | IC50 (HIV-1 pNL4-3 V7A) [nM] | IC50 (HIV-1 pNL4-3 WT) [nM] | IC50 (HIV-1 strain 92HT599; [1]) [nM] | IC50 (HIV-1 strain 92HT599; [2]) [nM]
CC(C)C1=C2[C@H]3CC[C@@H]4[C@@]5(C)CC[C@H](OC(=O)[C@H]6C[C@@H](C(=O)O)C6(C)C)C(C)(C)[C@@H]5CC[C@@]4(C)[C@]3(C)CC[C@@]2(NC(=O)C(C)(C)NC(=O)c2nccn2C)CC1=O [Example 16, (1R,3S)-3-((((3aR,5aR,5bR,7aR,9S,11aR,11bR,13aS)-1-isopropyl-5a,5b,8,8,11a-pentamethyl-3a-(2-methyl-2-(1-methyl-1H-imidazole-2-carboxamido)propanamido)-2-oxo-3,3a,4,5,5a,5b,6,7,7a,8,9,10,11,11a,11b,12,13,13a-octadecahydro-2H-cyclopenta[a]chrysen-9-yl)oxy)carbonyl)-2,2-dimethylcyclobutane-1-carboxylic acid] | > 50 | 5.01 to 10 | < 3 | 50 to 200
CC(C)C1=C2[C@H]3CC[C@@H]4[C@@]5(C)CC[C@H](OC(=O)[C@H]6C[C@@H](C(=O)O)C6(C)C)C(C)(C)[C@@H]5CC[C@@]4(C)[C@]3(C)CC[C@@]2(NC(=O)C2(NC(=O)c3ccc(Cl)cc3)CCC2)CC1=O [Example 42, (1R,3S)-3-((((3aR,5aR,5bR,7aR,9S,11aR,11bR,13aS)-3a-(1-(4-chlorobenzamido)cyclobutane-1-carboxamido)-1-isopropyl-5a,5b,8,8,11a-pentamethyl-2-oxo-3,3a,4,5,5a,5b,6,7,7a,8,9,10,11,11a,11b,12,13,13a-octadecahydro-2H-cyclopenta[a]chrysen-9-yl)oxy)carbonyl)-2,2-dimethylcyclobutane-1-carboxylic acid] | < 10 | 5.01 to 10 | < 3 | < 50
CC(C)C1=C2[C@H]3CC[C@@H]4[C@@]5(C)CC[C@H](OC(=O)[C@H]6C[C@@H](C(=O)O)C6(C)C)C(C)(C)[C@@H]5CC[C@@]4(C)[C@]3(C)CC[C@@]2(NC(=O)C(C)(C)NC(=O)c2cnccn2)CC1=O [Example 5, (1R,3S)-3-((((3aR,5aR,5bR,7aR,9S,11aR,11bR,13aS)-1-isopropyl-5a,5b,8,8,11a-pentamethyl-3a-(2-methyl-2-(pyrazine-2-carboxamido)propanamido)-2-oxo-3,3a,4,5,5a,5b,6,7,7a,8,9,10,11,11a,11b,12,13,13a-octadecahydro-2H-cyclopenta[a]chrysen-9-yl)oxy)carbonyl)-2,2-dimethylcyclobutane-1-carboxylic acid] | < 10 | < 5 | < 3 | 50 to 200
Cc1ccc(C(=O)NC2(C(=O)N[C@@]34CC[C@]5(C)[C@H](CC[C@@H]6[C@@]7(C)CC[C@H](OC(=O)[C@H]8C[C@@H](C(=O)O)C8(C)C)C(C)(C)[C@@H]7CC[C@]65C)C3=C(C(C)C)C(=O)C4)CC2)cn1 [Example 38, (1R,3S)-3-((((3aR,5aR,5bR,7aR,9S,11aR,11bR,13aS)-1-isopropyl-5a,5b,8,8,11a-pentamethyl-3a-(1-(6-methylnicotinamido)cyclopropane-1-carbox amido)-2-oxo-3,3a,4,5,5a,5b,6,7,7a,8,9,10,11,11a,11b,12,13,13a-octadecahydro-2H-cyclopenta[a]chrysen-9-yl)oxy)carbonyl)-2,2-dimethylcyclobutane-1-carboxylic acid] | < 10 | < 5 | < 3 | < 50
CC(C)C1=C2[C@H]3CC[C@@H]4[C@@]5(C)CC[C@H](OC(=O)[C@H]6C[C@@H](C(=O)O)C6(C)C)C(C)(C)[C@@H]5CC[C@@]4(C)[C@]3(C)CC[C@@]2(NC(=O)C(C)(C)NC(=O)c2cccnc2N2CCOCC2)CC1=O [Example 31, (1R,3S)-3-((((3aR,5aR,5bR,7aR,9S,11aR,11bR,13aS)-1-isopropyl-5a,5b,8,8,11a-pentamethyl-3a-(2-methyl-2-(2-morpholinonicotinamido)propan amido)-2-oxo-3,3a,4,5,5a,5b,6,7,7a,8,9,10,11,11a,11b,12,13,13a-octadecahydro-2H-cyclopenta[a]chrysen-9-yl)oxy)carbonyl)-2,2-dimethylcyclobutane-1-carboxylic acid] | > 50 | < 5 | < 3 | < 50
CC(C)C1=C2[C@H]3CC[C@@H]4[C@@]5(C)CC[C@H](OC(=O)[C@H]6C[C@@H](C(=O)O)C6(C)C)C(C)(C)[C@@H]5CC[C@@]4(C)[C@]3(C)CC[C@@]2(NC(=O)C2(NC(=O)c3ccc(Cl)cc3)CC2)CC1=O [Example 37, (1R,3S)-3-((((3aR,5aR,5bR,7aR,9S,11aR,11bR,13aS)-3a-(1-(4-chlorobenzamido)cyclopropane-1-carboxamido)-1-isopropyl-5a,5b,8,8,11a-pentamethyl-2-oxo-3,3a,4,5,5a,5b,6,7,7a,8,9,10,11,11a,11b,12,13,13a-octadecahydro-2H-cyclopenta[a]chrysen-9-yl)oxy)carbonyl)-2,2-dimethylcyclobutane-1-carboxylic acid] | < 10 | < 5 | < 3 | < 50
CC(C)C1=C2[C@H]3CC[C@@H]4[C@@]5(C)CC[C@H](OC(=O)[C@H]6C[C@@H](C(=O)O)C6(C)C)C(C)(C)[C@@H]5CC[C@@]4(C)[C@]3(C)CC[C@@]2(NC(=O)C(C)(C)NC(=O)c2ccc3ccccc3n2)CC1=O [Example 28, (1R,3S)-3-((((3aR,5aR,5bR,7aR,9S,11aR,11bR,13aS)-1-isopropyl-5a,5b,8,8,11a-pentamethyl-3a-(2-methyl-2-(quinoline-2-carboxamido)propanamido)-2-oxo-3,3a,4,5,5a,5b,6,7,7a,8,9,10,11,11a,11b,12,13,13a-octadecahydro-2H-cyclopenta[a]chrysen-9-yl)oxy)carbonyl)-2,2-dimethylcyclobutane-1-carboxylic acid] | 10 to 50 | 5.01 to 10 | < 3 | < 50
CC(C)C1=C2[C@H]3CC[C@@H]4[C@@]5(C)CC[C@H](OC(=O)[C@H]6C[C@@H](C(=O)O)C6(C)C)C(C)(C)[C@@H]5CC[C@@]4(C)[C@]3(C)CC[C@@]2(NC(=O)C(C)(C)NC(=O)c2ccc(N3CCOCC3)cc2)CC1=O [Example 18, (1R,3S)-3-((((3aR,5aR,5bR,7aR,9S,11aR,11bR,13aS)-1-isopropyl-5a,5b,8,8,11a-pentamethyl-3a-(2-methyl-2-(4-morpholinobenzamido)propanamido)-2-oxo-3,3a,4,5,5a,5b,6,7,7a,8,9,10,11,11a,11b,12,13,13a-octadecahydro-2H-cyclopenta[a]chrysen-9-yl)oxy)carbonyl)-2,2-dimethylcyclobutane-1-carboxylic acid] | < 10 | < 5 | < 3 | < 50
CC(C)C1=C2[C@H]3CC[C@@H]4[C@@]5(C)CC[C@H](OC(=O)[C@H]6C[C@@H](C(=O)O)C6(C)C)C(C)(C)[C@@H]5CC[C@@]4(C)[C@]3(C)CC[C@@]2(NC(=O)C2(NC(=O)c3cccnc3N3CCOCC3)CCC2)CC1=O [Example 45, (1R,3S)-3-((((3aR,5aR,5bR,7aR,9S,11aR,11bR,13aS)-1-isopropyl-5a,5b,8,8,11a-pentamethyl-3a-(1-(2-morpholinonicotinamido)cyclobutane-1-carboxamido)-2-oxo-3,3a,4,5,5a,5b,6,7,7a,8,9,10,11,11a,11b,12,13,13a-octadecahydro-2H-cyclopenta[a]chrysen-9-yl)oxy)carbonyl)-2,2-dimethylcyclobutane-1-carboxylic acid] | 10 to 50 | < 5 | 3.01 to 10 | < 50
